{
  "source": "patent US20030224992A1",
  "about": "“Transcription factor modulators and uses thereof” (Praecis Pharmaceuticals Inc., priority 2002, published 2003)",
  "test_system": "androgen responsive gene, kallikrein 3 (PSA II transcripts) in LNCaP cells",
  "assay": "Down-regulation of androgen receptor responsive gene expression by ARE (real time PCR)",
  "format": "cell-based",
  "settings": "electroporation, 1, 5 or 20 μM, 10 nM DHT, 4 hours",
  "data": [
    {"substance": "5′-AGTCTACGAGTGGGGTTCTTTTTTA-3′ (SEQ ID NO: 24) (DNA AGTCTACGAGTGGGGTTCTTTTTTA; chemistry not given here) [scrambled ARE]", "values": [
      {"measurement": "steady state levels of PSA II transcripts normalized to actin (DHT induction)", "value": "this was not observed"}
    ]}
  ]
}
